Patent publication US20230226228A1, “POSITRON IMAGING TOMOGRAPHY IMAGING AGENT COMPOSITION AND METHOD FOR DETECTION OF BACTERIAL INFECTION” (priority 2020, published 2023)

Assays:
S. aureus NfsB = type: biochemical; details: NADH 40 μM, substrate varied, Michaelis-Menten fit
Protocol: F-ENB, F-NB and F-NAP by NfsB was performed in 50 mM Tris-HCl buffer (pH 7.4) containing 5 mM EDTA, and 40 μM NADH in a total reaction volume of 500 μL. The reaction was initiated by adding enzyme (22 nM) and the consumption of NADH was monitored at 340 nm. […] Initial velocities as a function of substrate concentration were fitted to the Michaelis-Menten equation using GraphPad Prism 4. Each experiment was performed in triplicate and all the data points were included when the data were fit by the Michaelis-Menten equation.
The nitroreductase assay was performed at room temperature in 50 mM Tris-HCl buffer, pH 7.4, containing 5 mM EDTA in a total reaction volume of 500 μL. Reactions were initiated by the addition of NfsB to a final concentration of 45 nM, and the consumption of NADH was continuously monitored at 340 nm. […] The experiments were performed in triplicate and the initial velocities as a function of substrate concentration were globally fit to the Michaelis-Menten equation using GraphPad Prism 4.

S. aureus Xen29 [1] = assay: Rescue of sulfamethoxazole antibacterial effect (MIC, microbroth dilution in M9 media); type: cell-based
Protocol: FIG. 13. Impact of PABA analogues on the antibacterial activity of sulfamethoxazole (SMX).
Antibacterial susceptibility tests for aerobically growing bacteria were performed with a modified microbroth dilution assay according to the Clinical and Laboratory Standard Institute in transparent 96-well plates (CLSI. 2006). S. aureus Xen29 (PerkinElmer) were utilized in this study. Briefly, bacteria were grown to mid log phase (OD600 of 0.6-0.7) in cation-adjusted Mueller-Hinton (CAMH) media at 37° C. in an orbital shaker. Subsequently, bacteria were resuspended in the M9 media. A final concentration of 10^6 CFU/mL per well was added to M9 media (1% glucose, 1% casamino acids, 1 mM thiamine, 0.05 mM nicotinamide, 2 mM MgCl2, 0.1 mM CaCl2) containing 2-fold dilutions of SMX to give final concentrations ranging from 0.05 to 100 μg/mL either alone or in the presence of PABA (0.8 μg/mL and 4 μg/mL), F-PABA (0.8 μg/mL and 4 μg/mL), F-NB (10 μg/mL, 20 μg/mL and 40 μg/mL), or F-NAP (10 μg/mL, 20 μg/mL and 40 μg/mL). The plate was examined for bacteria growth using a UV-vis plate reader after 24 h incubation at 37° C. The MIC was recorded as the lowest SMX concentration (μM) required to inhibit at least 90% of bacterial growth as judged by the absorbance of the culture media.

S. aureus Newman [2] = assay: In vitro cellular uptake of radiotracer; type: cell-based; details: 1 μCi/mL, 120 min incubation, versus heat killed bacteria
Protocol: (§1) FIG. 12. In vitro 2-[^18F]F-NB uptake by S. aureus Newman and Xen29. 1 μCi of 2-[^18F]F-NB was incubated in a 1 mL culture of S. aureus Newman (green bars) or S. aureus Xen29 (blue bars) for 5, 30, 60, 90 and 120 min.
(§2) S. aureus Newman and S. aureus Xen29 were aerobically grown to OD600 0.6 in LB media at 37° C. To evaluate the uptake of 2-[^18F]F-NB, the bacteria were incubated with 1 μCi/mL of the radiotracer at 37° C. with rapid agitation. Heat-killed (90° C. for 30 min) bacteria were similarly incubated with 2-[^18F]FNB. Aliquots (1 mL) were removed after 5, 30, 60, 90, and 120 min and pelleted by centrifugation (11 000 rpm, 3 min) and washed three times with cold phosphate buffered saline (PBS). Total radioactivity was measured using an automated gamma counter and is reported as the percentage of radioactivity added to the culture. A minimum of five replicates were used for each assay and time point.

S. aureus Xen29 [3] = assay: In vitro cellular uptake of radiotracer; type: cell-based; details: 1 μCi/mL, 120 min incubation, versus heat killed bacteria
Protocol: as §1, §2

S. aureus Xen29 [4] = assay: PET/CT imaging of rat triceps infection / sterile inflammation model (S. aureus Xen29); type: in vivo, Sprague-Dawley rats
Protocol: FIG. 5. PET/CT imaging of rats infected in the right triceps with the bioluminescent Xen29 strain of S. aureus. (A) Experimental design. (B) 2-[^18F]F-ENB-derived radioactivity accumulates in the infected triceps (red arrow) but not the inflamed triceps (yellow arrow) at 3 h post tracer administration.
FIG. 8. PET/CT imaging of 2-[^18F]F-NB in a rat model of S. aureus Xen29 infection. (A) Radiosynthesis of 2-[^18F]F-NB. (i) [^18F]potassium fluoride, Kryptofix222, potassium carbonate, dimethyl sulfoxide, r.t., 10 min; (ii) 2 M potassium hydroxide in H2O, 105° C., 10 min; Overall decay-corrected radiochemical yield: 26% (n=1).
FIG. 10. Time activity curve (TAC) in infected triceps, inflamed triceps and blood and biodistribution of 2-[^18F]F-NB in major organs. (a) The right triceps of the rats were infected with S. aureus Xen 29 and the left triceps were injected with a 10-fold higher burden of heat-killed S. aureus to induce sterile inflammation. The rats were scanned by PET/CT for 120 min (rats with sterile inflammation in the left triceps) immediately starting from tracer administration. The PET scan was separated into ten frames (1-min) and twenty-two frames (5-min). TACs of infected triceps (blue), inflamed triceps (grey) and blood (left heart ventricle, red) are shown. Data represented as mean with standard error of the mean (n=4). (b) Time-dependent accumulation of 2-[^18F]F-NB in infected and inflamed triceps compared to the blood (left heart ventricle). Data are presented as the mean and standard error of the mean (n=4). […]
(§3) S. aureus (Newman or Xen29) was cultured overnight by inoculating 5 μL of bacteria from a glycerol stock into 10 mL of fresh cation-adjusted Mueller-Hinton (CAMH) broth or tryptic soy broth (TSB). […] After imaging, the infected triceps were collected, homogenized in PBS using a hand-held homogenizer, and the bacterial burden at the time of imaging was determined by plating the muscle tissues onto solid MH medium. After overnight incubation at 37° C., CFUs were quantified by enumeration. […]

DHPS = DHPS (Staphylococcus aureus, UniProt O05701); assay: HPPK-DHPS-DHFR coupled assay; type: biochemical; details: concentration of 80 μM
Sequence of DHPS (O05701 whole entry): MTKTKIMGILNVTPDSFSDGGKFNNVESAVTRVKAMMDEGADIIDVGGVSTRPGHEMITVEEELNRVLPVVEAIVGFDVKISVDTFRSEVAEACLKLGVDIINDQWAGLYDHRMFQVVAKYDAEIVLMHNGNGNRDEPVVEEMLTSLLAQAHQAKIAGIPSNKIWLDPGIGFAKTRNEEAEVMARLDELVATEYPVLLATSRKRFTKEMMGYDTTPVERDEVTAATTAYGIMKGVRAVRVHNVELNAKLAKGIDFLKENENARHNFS

bacterial cells = assay: MIC / toxicity of F-PABA; type: cell-based
S. aureus Newman [5] = assay: PET/CT imaging of rat triceps infection / sterile inflammation model (S. aureus Newman); type: in vivo, Sprague-Dawley rats; details: 60-80 min after tracer injection
Protocol: FIG. 3. PET/CT imaging of a rat model of S. aureus Newman-induced triceps infection. (A) [^18F]FDG PET/CT of a rat in which 8.2±0.2 log10 CFU of S. aureus Newman has been injected into the right triceps (red arrow) and with sterile inflammation in the left triceps (yellow arrow). The image was acquired 60-80 min after tracer injection. (B) Comparison of [18F]FDG accumulation 60-80 min postinjection at sites of infection and sterile inflammation, represented as % injected dose per cc (% ID/cc). […] (D) Comparison of 2-[^18F]F-ENB accumulation in the infected triceps and inflamed triceps 180-200 min after tracer injection: ***P<0.001 from a two-tailed Mann-Whitney U Test (n=7). (E) Ex vivo PET imaging of the excised infected triceps. The area of infection is highlighted in yellow. […]
as §3

CCOC(=O)c1ccc([N+](=O)[O-])cc1F [2-F-ENB, Ethyl 2-fluoro-4-nitrobenzoate]
kcat (S. aureus NfsB): 16.1 ± 1.7 s⁻¹

CC(=O)c1ccc([N+](=O)[O-])cc1F [2-F-NAP, 2-fluoro-4-nitroacetophenone]
rescue of growth in the presence of sulfamethoxazole (S. aureus Xen29 [1]): unable to rescue growth

O=C(O)c1ccc([N+](=O)[O-])cc1F [2-F-NB, 2-fluoro-p-nitrobenzoate]
rescue of growth in the presence of sulfamethoxazole (S. aureus Xen29 [1]): antagonized the activity of sulfamethoxazole | MIC of sulfamethoxazole in the presence of 40 μg/mL 2-F-NB (S. aureus Xen29 [1]; 40 μg/mL 2-F-NB): 12.5 µg/mL | kcat (S. aureus NfsB): 12.4 ± 1.6 s⁻¹

O=C(O)c1ccc([N+](=O)[O-])cc1[18F] [2-[^18F]F-NB, 2-[^18F]F-4-nitrobenzoate]
uptake of radiotracer by live bacteria (S. aureus Newman [2]): Time dependent uptake | uptake of radiotracer by live bacteria (S. aureus Xen29 [3]): Time dependent uptake | signal at the infection site versus site of sterile inflammation (S. aureus Xen29 [4]; 3 h post injection, ROI analysis): 17 fold | localisation of radioactive signal (S. aureus Xen29 [4]; 180 min post tracer injection): localized at the site of infection

CC(=O)c1ccc(N)cc1F [2-fluoro-4-aminoacetophenone, 2-Fluoro-4-aminoacetophenone]
substrate for DHPS (DHPS): not an efficient substrate for DHPS

Nc1ccc(C(=O)O)c(F)c1 [F-PABA, 2-fluoro-4-aminobenzoic acid]
rescue of growth in the presence of sulfamethoxazole (S. aureus Xen29 [1]): rescued bacterial growth in a concentration-dependent manner | MIC of sulfamethoxazole in the presence of 0.8 μg/mL F-PABA (S. aureus Xen29 [1]; 0.8 μg/mL F-PABA): 12.5 µg/mL | increase of sulfamethoxazole MIC by 0.8 μg/mL F-PABA (S. aureus Xen29 [1]; 0.8 μg/mL F-PABA): 8 fold | MIC of sulfamethoxazole in the presence of 4 μg/mL F-PABA (S. aureus Xen29 [1]; 4 μg/mL F-PABA): over 100 μg/mL | MIC (bacterial cells): > 100 µg/mL | toxicity to bacterial or mammalian cells (bacterial cells): not toxic to either bacterial or mammalian cells

Nc1ccc(C(=O)O)cc1 [PABA, p-aminobenzoic acid]
rescue of growth in the presence of sulfamethoxazole (S. aureus Xen29 [1]): bacterial regrowth in the presence of sulfamethoxazole occurred

O=C[C@H]([18F])[C@@H](O)[C@H](O)[C@H](O)CO [[^18F]FDG, 2-Deoxy-2-[18F]fluoro-D-glucose]
radioactivity in the infected triceps (S. aureus Newman [5]): 0.8 % ID/cc | radioactivity in the inflamed triceps (S. aureus Newman [5]; sterile inflammation): 1.2 % ID/cc

Cc1cc(NS(=O)(=O)c2ccc(N)cc2)no1 [sulfamethoxazole]
MIC (S. aureus Xen29 [1]; Staphylococcus aureus, XEN29, 24 h, M9 media, read-out: MIC of sulfamethoxazole alone): 1.56 µg/mL
